Assay results as given in patent US20120265121A1, “PHTHALOCYANINE-BASED ANTIFUNGAL AGENTS” (CASE WESTERN RESERVE UNIVERSITY, priority 2011, published 2012).

Test system: C. albicans (strain SC-5134)
Test: FUN-1 fluorescence metabolic activity assay (confocal)
Type: cell-based, Candida albicans
Conditions: 1.0 μM Pc 4, 2.0 J/cm^2, vs cells exposed to Pc 4 but not irradiated
Method: Pc 4-Photodynamic Treatment Conditions: The phthalocyanine photosensitizer Pc 4 was kindly provided by Dr. Malcolm E. Kenney (Department of Chemistry, Case Western Reserve University, Cleveland, Ohio, USA). Stock solutions (0.5 mM) of Pc 4 were prepared in N′,N′-dimethylformamide (DMF, ThermoFisher, Waltham, Mass., USA) and stored at 4° C. in the dark. C. albicans cultures were incubated with Pc 4 concentrations ranging from 0.1 to 1.0 μM in 1× PBS containing 10% FBS for at least 1 hr at 37° C. in the dark and subsequently irradiated with red light using a light-emitting diode array (EFOS, Mississauga, Ontario, Canada) at a fluence ranging from 1.0 to 2.0 J/cm^2 (1.0 mW/cm^2, λmax ˜670-675 nm) at room temperature. […] The absorbance of the resulting orange solution was measured using a spectrophotometer (Spectronic Genesys 5, Analytical Instrument, Golden Valley, Minn., USA) at 492 nm. […] FUN-1 fluorescence was excited using solid state diode lasers (488 nm) and collected with a 580-650 nm band pass emission filter.

Structure (SMILES): CN(C)CCC[Si](C)(C)O[Si]1(O)n2c3c4ccccc4c2N=C2N=C(N=c4c5ccccc5c(n41)=NC1=NC(=N3)c3ccccc31)c1ccccc12 (stereo not shown) [Pc 4, HOSiPcOSi(CH3)2(CH2)3N(CH3)2]
- FUN-1 fluorescence: much reduced FUN-1 fluorescence
